Article PMC6515668, “Liposomes for effective drug delivery to the ocular posterior chamber” (Journal of Nanobiotechnology, 2019)
Counter-ions that a name gives are not always drawn.

Legend:
ARPE-19 = assay: In vitro anti-ROS efficacy (H2O2-exposed cells, DCFH-DA); assay type: cell-based, human; conditions: ARPE-19 exposed to 200 μM H2O2 for 24 h, versus model group
Procedure: Human retinal pigment epithelial cells (ARPE-19) were maintained in Dulbecco’s modified Eagle’s medium/Ham’s F12 (Gibco) supplemented with 10% fetal bovine serum (Gibco), 100 IU/mL penicillin (Gibco), and 100 μg/mL streptomycin (Gibco) at 37 °C in an atmosphere of 5% CO2. After incubation, cells were exposed to 200 μM H2O2 for 24 h, and fluorescent probes (Beyotime Biotechnology, China) were used to measure intracellular ROS levels (DCFH-DA, 10 mM) according to the manufacturer’s instructions. Before application, CBLs and P-CBLs of a certain volume were diluted with complete culture medium. The final concentration of BBH was 0.0040 μM and 0.0020 μM for CHR in CBLs groups, while 0.0044 μM of BBH, 0.0018 μM for CHR for P-CBLs, respectively. The final drug concentration of CBs was the same as CBLs group. Treated cells were loaded with fluorescent probes in a serum-free medium for 20 min at 37 °C. Then, photographs were taken using a long-term real-time dynamic live cell imaging analyzer.

[1] = Microdialysis probe recovery and stability (dialysis and retrodialysis); conditions: retrodialysis, 7 h
Procedure: Normal saline containing 30% ethanol was chosen as the perfusate for two drugs with opposing polarity, and the flow rate was 1.5 μL/min according to our previous study. Then, an in vitro RR% evaluation was performed via dialysis and retrodialysis. The in vivo stability study was performed using a retrodialysis method, which provided the evidence for the microdialysis method that was used for the in vivo pharmacokinetics study.

stability in in vivo analysis [1]	SMILES	intracellular ROS levels (relative fluorescence ratio) (ARPE-19)
good stability for 7 h	COc1ccc2cc3[n+](cc2c1OC)CCc1cc2c(cc1-3)OCO2 [BBH, berberine hydrochloride]	could reduce intracellular ROS levels effectively
good stability for 7 h	Cc1cc(O)c2c(c1)C(=O)c1cccc(O)c1C2=O [CHR, chrysophanol]	could reduce intracellular ROS levels effectively
